In PMC10692723 (The Journal of Biological Chemistry, 2023):
Substitutions are numbered along the chain they refer to. Numbers in names are those of the source. Ends that are not written are not given here. * marks the point of attachment. FITC = O=C1OC2(c3ccc(O)cc3Oc3cc(O)ccc32)c2ccc(NC(=S)*)cc21

B1: MSN FERM domain (1-345) H288A, untagged (domain or fragment)
chain: MPKTISVRVTTMDAELEFAIQPNTTGKQLFDQVVKTIGLREVWFFGLQYQDTKGFSTWLKLNKKVTAQDVRKESPLLFKFRAKFYPEDVSEELIQDITQRLFFLQVKEGILNDDIYCPPETAVLLASYAVQSKYGDFNKEVHKSGYLAGDKLLPQRVLEQHKLNKDQWEERIQVWHEEHRGMLREDAVLEYLKIAQDLEMYGVNYFSIKNKKGSELWLGVDALGLNIYEQNDRLTPKIGFPWSEIRNISFNDKKFVIKPIDKKAPDFVFYAPRLRINKRILALCMGNAELYMRRRKPDTIEVQQMKAQAREEKHQKQMERAMLENEKKKREMAEKEKEKIEREKE
B2: MSN FERM domain (1-345) L281R, untagged (domain or fragment)
chain: B1 chain with L281R, A288H
B3: FITC-conjugated CD44 peptide (SRRRCGQKKKLVINSGNGAVEDYK-FITC) (peptide)
peptide: SRRRCGQKKKLVINSGNGAVEDYK(FITC)

Key:
[1] = target: GST-MSN and Venus-Flag-CD44 (Homo sapiens, UniProt P26038); assay: GST pull-down assay in cell lysates; assay type: binding; settings: full-length GST-MSN and Flag-CD44
Sequence of GST-MSN and Venus-Flag-CD44 (P26038 whole entry): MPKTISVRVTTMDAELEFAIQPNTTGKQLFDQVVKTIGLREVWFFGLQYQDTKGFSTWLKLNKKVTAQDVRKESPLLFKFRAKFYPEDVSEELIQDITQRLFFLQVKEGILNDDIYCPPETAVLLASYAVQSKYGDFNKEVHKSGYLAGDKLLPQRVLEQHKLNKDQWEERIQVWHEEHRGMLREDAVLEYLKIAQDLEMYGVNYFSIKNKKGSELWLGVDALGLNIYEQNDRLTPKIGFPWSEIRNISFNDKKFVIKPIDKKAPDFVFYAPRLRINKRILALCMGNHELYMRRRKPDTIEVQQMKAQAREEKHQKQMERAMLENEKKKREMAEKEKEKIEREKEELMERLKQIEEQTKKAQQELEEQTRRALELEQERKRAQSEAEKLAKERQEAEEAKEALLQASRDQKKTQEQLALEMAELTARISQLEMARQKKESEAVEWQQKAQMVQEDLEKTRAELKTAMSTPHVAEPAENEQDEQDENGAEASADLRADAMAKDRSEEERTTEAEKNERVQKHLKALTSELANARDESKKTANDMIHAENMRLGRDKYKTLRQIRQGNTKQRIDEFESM

[2] = Solubility by nephelometry; settings: aqueous / PBS buffer
[3] = target: MSN–CD44 interaction (Homo sapiens, UniProt P26038); assay: MSN–CD44 TR-FRET assay; assay type: binding; settings: for increase in potency relative to compound 2: MSN–CD44 TR-FRET
Sequence of MSN–CD44 interaction (P26038 1-345): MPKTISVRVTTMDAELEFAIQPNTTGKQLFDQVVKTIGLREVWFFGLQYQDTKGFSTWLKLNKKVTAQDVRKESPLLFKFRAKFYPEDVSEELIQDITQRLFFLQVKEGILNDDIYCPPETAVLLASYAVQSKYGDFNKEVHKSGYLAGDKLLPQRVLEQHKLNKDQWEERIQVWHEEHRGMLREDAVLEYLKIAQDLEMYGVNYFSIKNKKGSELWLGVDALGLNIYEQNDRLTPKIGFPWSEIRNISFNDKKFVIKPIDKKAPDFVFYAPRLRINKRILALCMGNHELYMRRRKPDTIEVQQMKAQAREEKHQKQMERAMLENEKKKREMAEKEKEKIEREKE

[4] = target: B3; assay: FRET or BRET
[5] = target: T1, 6His-tagged MSN FERM domain (residues 1-345), wild type (human, UniProt P26038 1-345); assay: FRET or BRET
[6] = target: MSN FERM domain (residues 1-345), wild type, 6His tag cleaved (human, UniProt P26038 1-345); assay: FRET or BRET
[7] = target: T1, 6His-tagged MSN FERM domain (residues …); assay: FRET or BRET; remark: listed apart in the source
[8] = target: T1, 6His-tagged MSN FERM domain (residues …); assay: FRET or BRET; remark: listed apart in the source

Row | Molecule | effect on MSN–CD44 interaction in GST pull-down assay [1] | solubility [2] | h (hill slope) of MSN–CD44 TR-FRET dose response [3] | further results
1 | COc1ccccc1C(=O)Nc1ccc(-c2nc3ccccc3[nH]2)cc1 [Compound 2, N-(4-(1H-benzo[d]imidazol-2-yl)phenyl)-2-methoxybenzamide] | induce the dissociation of CD44 from MSN | low solubility | 15.8 | –
2 | O=C(Nc1ccc(-c2nc3ccccc3[nH]2)cc1)c1cccc(Cl)c1 [Compound 2b, N-(4-(1H-benzo[d]imidazol-2-yl)phenyl)-3-chlorobenzamide] | able to inhibit the MSN–CD44 interaction | improved solubility | 2.3 | increase in potency relative to compound 2 [3]: approximately 2 fold
3 | Nc1ccc(C(=O)Nc2ccc(-c3nc4ccc(NC(=O)c5ccc(N)cc5)cc4s3)cc2)cc1.O=C(O)C(F)(F)F.O=C(O)C(F)(F)F [Compound 1, 4-amino-N-(4-(6-(4-aminobenzamido)benzo[d]thiazol-2-yl)phenyl)benzamide bis(2,2,2-trifluoroacetate)] | induce the dissociation of CD44 from MSN | – | 1.7 | –
4 | COc1ccc(C(=O)Nc2ccc(-c3nc4ccccc4[nH]3)cc2)c(OC)c1 [Compound 2a, N-(4-(1H-benzo[d]imidazol-2-yl)phenyl)-2,4-dimethoxybenzamide] | able to inhibit the MSN–CD44 interaction | improved solubility | 2.4 | increase in potency relative to compound 2 [3]: approximately 2 fold
5 | B1 | – | – | – | fold higher concentration needed to inhibit, against WT MSN [4]: 10 fold
6 | B2 | – | – | – | fold higher concentration needed to inhibit, against WT MSN [4]: 10 fold
7 | B3 | – | – | – | binding result [5]: binds; binding result [6]: binds
8 | EDGGSSWEYIWTLPSG [C3S1-pd peptide] | – | – | – | IC50 [7]: ~220 nM; EC50 [8]: ~130 nM
